# Source: US20250161271A1, “PHARMACEUTICAL COMPOSITION FOR TREATING CANCER, COMPRISING ANTICANCER AGENT AND NOVEL COMPOUND HAVING INHIBITORY ACTIVITY WITH RESPECT TO PROSTAGLANDIN E2 RECEPTORS” (KANAPH THERAPEUTICS INC., priority 2022, published 2025)
# Columns and labels:
# hEP4 = molecular target: T1, hEP4 (Homo sapiens, UniProt P35408); experiment: hEP4 cAMP assay; format: cell-based; settings: HEK293 cells overexpressing hEP4; PGE2 20 nM as agonist; median of multiple experiments; read-out: IC50 (nM) EP4 cAMP
# T1 construct: expressed in transfected cells; host or cells: HEK293
# T1 sequence (P35408 whole entry): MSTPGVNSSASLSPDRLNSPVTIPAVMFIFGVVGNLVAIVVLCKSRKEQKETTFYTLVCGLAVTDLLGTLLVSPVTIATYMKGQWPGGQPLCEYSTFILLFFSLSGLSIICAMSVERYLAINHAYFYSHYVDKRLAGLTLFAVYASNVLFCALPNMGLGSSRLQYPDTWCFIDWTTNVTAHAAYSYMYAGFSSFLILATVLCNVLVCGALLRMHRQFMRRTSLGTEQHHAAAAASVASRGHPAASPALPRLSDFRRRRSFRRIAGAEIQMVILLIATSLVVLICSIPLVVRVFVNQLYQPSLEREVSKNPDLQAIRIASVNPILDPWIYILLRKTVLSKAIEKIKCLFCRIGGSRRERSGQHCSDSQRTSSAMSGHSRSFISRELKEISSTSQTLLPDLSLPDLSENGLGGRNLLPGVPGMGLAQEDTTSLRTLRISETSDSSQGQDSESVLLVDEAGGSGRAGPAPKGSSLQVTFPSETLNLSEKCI
# Description: Experimental Example 1.2: hEP4 cAMP Assay
# (§1) HEK293 cells overexpressing hEP4 were cultured in growth medium (GM:MEM (Gibco™, 11095080)/10% HI FBS (Gibco™, 10082147)/1% penicillin/streptomycin). Before the experiment, the growth medium was removed, and starvation medium (HBSS (Gibco™ 14025076)/10% GM) was added. Thereafter, the cells were incubated for 4 hours. HEK293 cells harboring hEP4 were detached from the culture dish with a non-enzymatic cell dissociation buffer (Gibco™, 15040066). The cells were resuspended in assay buffer (AB:HBSS, 0.1% BSA stabilizer, 0.5 mM IBMX, 5 mM HEPES).
# (§2) 1,000 cells in 5 μL of AB were seeded per well in a 384 well plate (Corning®, 3570), and stock solutions of test compounds were prepared at a concentration of 1 mM in DMSO and serially diluted in DMSO to the concentration required for the inhibition dose response curve (test concentration range of […]-0.001 nM). […]
# (§3) 5 μL of each donor (Eu-cAMP tracer) and acceptor (ULight-anti-cAMP) was added, and the plate was incubated in the dark for 1 hour at room temperature, and then a Varioskan LUX multimode microplate reader was used to obtain the results (excitation: 334 nm, emission: 615 and 665 nm). The resulting FRET fluorescence value (665 nm/615 nm*10000) was converted and then calculated as a percentage of cAMP compared to the DMSO control value. […]
# hEP2 = molecular target: T2, hEP2 (Homo sapiens, UniProt P43116); experiment: hEP2 cAMP assay; format: cell-based; settings: HEK293 cells overexpressing hEP2; PGE2 400 pM as agonist; median of multiple experiments; read-out: IC50 (nM) EP2 cAMP
# T2 construct: expressed in transfected cells; host or cells: HEK293
# T2 sequence (P43116 whole entry): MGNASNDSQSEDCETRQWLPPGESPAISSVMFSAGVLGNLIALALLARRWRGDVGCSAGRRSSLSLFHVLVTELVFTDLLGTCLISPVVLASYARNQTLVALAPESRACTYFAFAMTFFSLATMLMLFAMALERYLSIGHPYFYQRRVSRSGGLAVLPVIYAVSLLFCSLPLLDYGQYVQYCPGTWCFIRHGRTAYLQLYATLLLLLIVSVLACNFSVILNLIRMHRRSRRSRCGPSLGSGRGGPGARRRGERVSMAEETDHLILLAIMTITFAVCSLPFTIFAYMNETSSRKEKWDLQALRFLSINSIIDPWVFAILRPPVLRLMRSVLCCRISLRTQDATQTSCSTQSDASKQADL
# Description: Experimental Example 1.1: hEP2 cAMP Assay
# as §1, with “hEP2” for “hEP4”, “hours. The” for “hours.”
# as §2
# as §3, with “relative” for “compared”
# CT26 cells = experiment: Anticancer efficacy in mouse-derived colorectal carcinoma CT26 tumor model (tumor size); format: in vivo
# Description: Experimental Example 2.1. Evaluation of Anticancer Efficacy of Combination Administration in Mouse-Derived Colorectal Carcinoma Tumor Model: CT26
# (§4) CT26 cells were subcultured and maintained in a cell incubator (CO2 incubator) under 37° C., 500 CO2 conditions using RPMI-1640 medium containing 10% FBS (fetal bovine serum). For the tumor animal model, CT26 cells were resuspended at a concentration of 533 10^5 cells/100 μL, and 100 μL per each mouse was transplanted into the subcutaneous region of the right flank of 6 to 7 week-old BALB/c mice (Shanghai Lingchang Biotechnology Co., Ltd, Shanghai) to prepare a CT26 tumor model.
# The tumor size was calculated by measuring the short axis and the long axis using a vernier caliper and substituting them into Equation 1 below.
# tumor size (volume, mm^3)=(short axis, mm)^2×(long axis, mm)×0.5 [Equation 1]
# (§5) When the tumor size reached an average of 70 to 100 mm^3, the mice were randomly divided into groups for the evaluation of drug efficacy (average tumor size per group=79 mm^3). The drug efficacy was evaluated by substituting the measured tumor size into Equation 2 to calculate and compare the tumor growth inhibitory ability between groups.
# tumor growth inhibitory ability=[{(control group tumor size at the time of measurement,C)−(control group tumor size at the start of administration,C0)}−{(test group tumor size at the time of measurement,T)−(test group tumor size at the start of administration,T0)}]/{(control group tumor size at the time of measurement,C)−(control group tumor size at the start of administration,C0)} [Equation 2]
# Drug administration was carried out for 12 days from the day after the test groups were grouped into a group treated with A01 (Example 34b), a group treated with an anti-PD-1 antibody, an immune checkpoint inhibitor, and a group treated with A01 and an anti-PD-1 antibody in combination. The anti-PD-1 antibody (BioXcell, Cat #BP0146) was diluted in PBS and intraperitoneally administered once every 3 days at a concentration of 200 μg/mouse. […]
# [1] = Body weight of mice in CT26 tumor model; format: in vivo, mouse; settings: BALB/c mice
# Description: as §4
# (§6) Drug administration was carried out for 12 days from the day after the test groups were grouped into a group treated with A01 (Example 34b), a group treated with an anti-PD-1 antibody, an immune checkpoint inhibitor, and a group treated with A01 and an anti-PD-1 antibody in combination. The anti-PD-1 antibody (BioXcell, Cat #BP0146) was diluted in PBS and intraperitoneally administered once every 3 days at a concentration of 200 μg/mouse. A01 was used as an excipient by adding Tween 80 to 0.5% methycellulose (40000 cp) aqueous solution until it reached 0.2%, and A01 was suspended as an excipient and orally administered daily at a concentration of 150 mg/kg.
# [2] = Body weight of mice in MC38 tumor model; format: in vivo, mouse; settings: C57B/6 mice
# Description: as §4, with “MC38” for “CT26”, “subcultured” for “subcultured and maintained”, “5%” for “500”, “DMEM” for “RPMI-1640”, “1×10^6” for “533 10^5”, “C57B/6” for “BALB/c”
# as §6, with “18” for “12”, “A02” for “A01”, “1b),” for “34b),”
# MC38 cells = experiment: Anticancer efficacy in mouse-derived colorectal carcinoma MC38 tumor model (tumor size); format: in vivo
# Description: Experimental Example 2.2. Evaluation of Anticancer Efficacy of Combination Administration in Mouse-Derived Colorectal Carcinoma Tumor Model: MC38
# as §4, with “MC38” for “CT26”, “subcultured” for “subcultured and maintained”, “5%” for “500”, “DMEM” for “RPMI-1640”, “1×10^6” for “533 10^5”, “C57B/6” for “BALB/c”
# The tumor size was calculated by measuring in the same manner as in Experimental Example 2.1.
# as §5, with “size=91” for “size per group=79”, “2 of Experimental Example 2.1” for “2”
# as §6, with “18” for “12”, “A02” for “A01”, “1b),” for “34b),”
compound,measurement,setting,value
"COc1cc(-c2ccc(Cc3c(C)sc(C)c3C(=O)NC3CC4(C3)CC(C(=O)O)C4)cc2)cc(N2CCC2=O)c1 [Example 63, (2R, 4R, 6R)-6-(4-((3′-methoxy-5′-(2-oxoazetidin-1-yl)-[1,1′-biphenyl]-4-yl)methyl)-2,5-dimethylthiophene-3-carboxamido)spiro[3.3]heptane-2-carboxylic acid]",IC50,hEP4,≤ 500 nM
"O=C(N[C@]12C[C@](C(=O)O)(C1)C2)c1csc2ccn(Cc3ccc(-c4ccccc4)cc3)c12 [Example 87, 3-(4-([1,1′-biphenyl]-4-ylmethyl)-4H-thieno[3,2-b]pyrrole-3-carboxamido)bicyclo[1.1.1]pentane-1-carboxylic acid]",IC50,hEP2,> 10000 nM
same,IC50,hEP4,> 10000 nM
COc1cc(F)cc(-c2ccc(Cc3c(C)sc(C)c3C(=O)NC3CC4(C3)CC(C(=O)O)C4)cc2)c1 (stereo not shown) [Example A01],tumor growth inhibition rate compared to control group,"CT26 cells; 12 days administration, A01 150 mg/kg oral daily, anti-PD-1 antibody 200 μg/mouse i.p. once every 3 days, Equation 2",38.5%
same,tumor size at end point of the test,"CT26 cells; BALB/c mice, 12 days administration, A01 150 mg/kg oral daily, anti-PD-1 antibody 200 μg/mouse i.p. once every 3 days",1092.6±237.5 mm^3
same,tumor size at start point of the test,"CT26 cells; BALB/c mice, start of drug administration",79.4±2.3 mm^3
same,body weight at end point of the test,"[1]; 12 days administration, A01 150 mg/kg oral daily, anti-PD-1 antibody 200 μg/mouse i.p. once every 3 days",22.2 ± 0.6 g
same,body weight at start point of the test,[1]; start of drug administration,20.4 ± 0.4 g
Cc1sc(C)c(C(=O)NC2CC3(C2)CC(C(=O)O)C3)c1Cc1ccc(-c2ccccc2)cc1 (stereo not shown) [Example A02],body weight at end point of the test,"[2]; 18 days administration, A02 150 mg/kg oral daily, anti-PD-1 antibody 200 μg/mouse i.p. once every 3 days",22.0 ± 0.4 g
same,body weight at start point of the test,[2]; start of drug administration,19.1 ± 0.2 g
same,tumor growth inhibition rate compared to control group,"MC38 cells; 18 days administration, A02 150 mg/kg oral daily, anti-PD-1 antibody 200 μg/mouse i.p. once every 3 days, Equation 2",32.7%
same,tumor size at end point of the test,"MC38 cells; C57B/6 mice, 18 days administration, A02 150 mg/kg oral daily, anti-PD-1 antibody 200 μg/mouse i.p. once every 3 days",1711.0±236.4 mm^3
same,tumor size at start point of the test,"MC38 cells; C57B/6 mice, start of drug administration",91.5±3.1 mm^3
